{"source": "patent US4988517A", "about": "“Method and composition for inhibiting colon carcinogenesis” (American Health Foundation, priority 1988, dated 1991)", "origin": "cited, not measured here", "details": "cited from earlier work"}
{"smiles": "[Se]", "note": "[selenium]", "values": [{"measurement": "Reproductive and teratogenic effects", "setting": "animals and humans", "result": "Toxic reproductive and teratogenic effects"}, {"measurement": "Toxic chronic feeding level", "setting": "chronic feeding, animals", "result": "5 to 10", "unit": "ppm"}]}
